Source: ChEMBL document CHEMBL1201862, “PubChem BioAssay data set” (2004)
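96-well plates; 48 h exposure; 5 concentrations. Endpoints by linear interpolation between flanking doses. Not reached: highest tested concentration assigned. GI50 = concentration required for 50% inhibition of growth.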 Calls of active or inactive are those of the source. No stated cut-off is given here; in the data, active = GI50 up to about 1.1 µM and inactive = higher.

Assays:
Assay in all cases: inhibition of tumour cell growth, NCI panel, 48 h
MOLT-4 = system: MOLT-4
SF-268 = system: SF-268
RXF 393 = system: RXF 393
KM12 = system: KM12
UACC-257 = system: UACC-257
OVCAR-5 = system: OVCAR-5
SK-MEL-2 = system: SK-MEL-2
RPMI-8226 = system: RPMI-8226
A549 = system: A549
EKVX = system: EKVX
LOX IMVI = system: LOX IMVI
UACC-62 = system: UACC-62
SK-MEL-28 = system: SK-MEL-28
SNB-75 = system: SNB-75
M14 = system: M14
HT-29 = system: HT-29

Measured: GI50

O=C(Nc1ccc(C(F)(F)F)cc1[N+](=O)[O-])C(=O)C(C(=O)c1ccc2ccccc2c1)C1OC(=O)c2ccccc21 (centres undefined)
inactive: MOLT-4 2.26 µM | SF-268 4.16 µM | RXF 393 2.94 µM | KM12 11.9 µM | UACC-257 10.1 µM | OVCAR-5 13.3 µM | SK-MEL-2 13 µM | RPMI-8226 4.11 µM | A549 8.51 µM | EKVX 3.32 µM | LOX IMVI 6.38 µM | UACC-62 5.6 µM | SK-MEL-28 3.63 µM | SNB-75 6.97 µM | M14 13.6 µM | HT-29 9.08 µM

CCCCNC(=O)NNC(=O)c1cc(/C=C/c2cccc([N+](=O)[O-])c2)ncn1
inactive: MOLT-4 > 100 µM | SF-268 > 100 µM | RXF 393 > 100 µM | KM12 > 100 µM | UACC-257 > 100 µM | OVCAR-5 > 100 µM | SK-MEL-2 > 100 µM | RPMI-8226 25.4 µM | A549 > 100 µM | EKVX > 100 µM | LOX IMVI 34.2 µM | UACC-62 > 100 µM | SK-MEL-28 > 100 µM | SNB-75 > 100 µM | M14 > 100 µM | HT-29 > 100 µM

CCOC(=O)C(=O)Nc1cccc(Cl)c1C
inactive: MOLT-4 > 100 µM | SF-268 > 100 µM | RXF 393 > 100 µM | KM12 > 100 µM | UACC-257 > 100 µM | OVCAR-5 > 100 µM | SK-MEL-2 > 100 µM | RPMI-8226 > 100 µM | A549 > 100 µM | EKVX > 100 µM | LOX IMVI > 100 µM | UACC-62 > 100 µM | SK-MEL-28 > 100 µM | M14 > 100 µM | HT-29 > 100 µM

COc1cc(-c2ccc(NC(=O)SCCC(=O)O)cc2OC)ccc1NC(=O)SCCC(=O)O
inactive: MOLT-4 > 100 µM | SF-268 > 100 µM | RXF 393 > 100 µM | KM12 > 100 µM | UACC-257 > 100 µM | OVCAR-5 > 100 µM | SK-MEL-2 > 100 µM | RPMI-8226 > 100 µM | A549 > 100 µM | EKVX > 100 µM | LOX IMVI > 100 µM | SK-MEL-28 > 100 µM | SNB-75 65.3 µM | M14 > 100 µM | HT-29 > 100 µM

COc1ccc(S(=O)(=O)N(CC(=O)O)c2ccccc2)cc1
inactive: MOLT-4 > 100 µM | SF-268 > 100 µM | RXF 393 > 100 µM | KM12 > 100 µM | UACC-257 > 100 µM | OVCAR-5 > 100 µM | SK-MEL-2 > 100 µM | RPMI-8226 > 100 µM | A549 > 100 µM | EKVX > 100 µM | LOX IMVI > 100 µM | UACC-62 > 100 µM | SK-MEL-28 > 100 µM | SNB-75 67.3 µM | M14 > 100 µM | HT-29 > 100 µM

CCN(CC)CCNC(=O)c1ccccc1NC(=O)C(=O)Nc1ccccc1C(=O)NCCN(CC)CC
inactive: MOLT-4 30.2 µM | SF-268 > 100 µM | KM12 45.6 µM | UACC-257 18.6 µM | OVCAR-5 94 µM | SK-MEL-2 43 µM | RPMI-8226 > 100 µM | A549 > 100 µM | EKVX > 100 µM | LOX IMVI 24.9 µM | UACC-62 > 100 µM | SK-MEL-28 45.4 µM | SNB-75 47 µM | M14 19.1 µM | HT-29 34.6 µM

COc1ccc(/C(=N\NC(=O)C(=O)NN)C(c2ccc(OC)cc2)C2(O)C(=O)Nc3ccccc32)cc1 (centres undefined)
inactive: MOLT-4 6.44 µM | SF-268 55.2 µM | KM12 > 100 µM | OVCAR-5 > 100 µM | SK-MEL-2 69.7 µM | RPMI-8226 69.7 µM | A549 62.4 µM | EKVX > 100 µM | UACC-62 45.3 µM | SK-MEL-28 > 100 µM | SNB-75 > 100 µM | M14 > 100 µM | HT-29 14.5 µM

CC(C)(C)C1CCC(=O)C(C(O)CC2CC(=O)N(c3ccccc3)C(=O)C2)C1 (centres undefined)
inactive: MOLT-4 54.5 µM | SF-268 81.5 µM | RXF 393 > 100 µM | KM12 > 100 µM | UACC-257 > 100 µM | OVCAR-5 > 100 µM | RPMI-8226 73.1 µM | A549 > 100 µM | EKVX > 100 µM | LOX IMVI 49.5 µM | UACC-62 > 100 µM | SK-MEL-28 > 100 µM | SNB-75 > 100 µM | M14 > 100 µM | HT-29 > 100 µM

CCOC(=O)C(C(=O)c1ccccc1)=C1NCCN1
inactive: MOLT-4 > 100 µM | SF-268 > 100 µM | RXF 393 > 100 µM | KM12 > 100 µM | UACC-257 > 100 µM | OVCAR-5 > 100 µM | SK-MEL-2 > 100 µM | RPMI-8226 > 100 µM | A549 > 100 µM | EKVX > 100 µM | LOX IMVI > 100 µM | UACC-62 > 100 µM | SK-MEL-28 > 100 µM | M14 > 100 µM | HT-29 > 100 µM

CCN(CC)CCn1c2c3ccccc3ccc2c2oc(=O)c3ccccc3c21
inactive: SF-268 82.2 µM | KM12 > 100 µM | UACC-257 > 100 µM | OVCAR-5 > 100 µM | SK-MEL-2 > 100 µM | RPMI-8226 > 100 µM | A549 > 100 µM | EKVX > 100 µM | LOX IMVI > 100 µM | UACC-62 > 100 µM | SK-MEL-28 > 100 µM | SNB-75 15.9 µM | M14 45.5 µM | HT-29 > 100 µM

CCCCN(CC)C(=O)C(=O)C1C(=O)Nc2ccccc2[S+]1[O-] (centres undefined)
inactive: MOLT-4 > 100 µM | SF-268 > 100 µM | RXF 393 > 100 µM | KM12 > 100 µM | UACC-257 > 100 µM | OVCAR-5 > 100 µM | SK-MEL-2 > 100 µM | RPMI-8226 > 100 µM | A549 > 100 µM | EKVX 55.6 µM | LOX IMVI > 100 µM | UACC-62 > 100 µM | SK-MEL-28 > 100 µM | SNB-75 > 100 µM | M14 > 100 µM | HT-29 > 100 µM

COC(=O)/C(=N\NC(N)=O)C(C(=O)C(=O)Nc1ccccc1C(=O)OC)c1nc2ccc(C(=O)c3ccccc3)cc2nc1O (centres undefined)
inactive: MOLT-4 > 100 µM | SF-268 > 100 µM | KM12 > 100 µM | UACC-257 > 100 µM | OVCAR-5 > 100 µM | SK-MEL-2 > 100 µM | RPMI-8226 > 100 µM | A549 > 100 µM | EKVX > 100 µM | LOX IMVI > 100 µM | UACC-62 > 100 µM | SK-MEL-28 > 100 µM | SNB-75 > 100 µM | M14 > 100 µM | HT-29 > 100 µM

Cc1cc(O)nc(CNC(=O)Cc2ccccc2)n1
inactive: MOLT-4 > 100 µM | SF-268 > 100 µM | RXF 393 > 100 µM | KM12 > 100 µM | UACC-257 > 100 µM | OVCAR-5 > 100 µM | SK-MEL-2 > 100 µM | RPMI-8226 > 100 µM | A549 > 100 µM | EKVX > 100 µM | LOX IMVI > 100 µM | UACC-62 > 100 µM | SK-MEL-28 > 100 µM | SNB-75 > 100 µM | M14 > 100 µM | HT-29 > 100 µM

Cc1ccccc1C(=O)Oc1ccc(O)cc1
inactive: MOLT-4 > 100 µM | SF-268 > 100 µM | RXF 393 > 100 µM | KM12 > 100 µM | UACC-257 > 100 µM | OVCAR-5 > 100 µM | SK-MEL-2 > 100 µM | RPMI-8226 > 100 µM | A549 > 100 µM | EKVX > 100 µM | UACC-62 > 100 µM | SNB-75 > 100 µM | M14 > 100 µM | HT-29 > 100 µM

O=C1C2C3CC4C5C3C1C5C1(SCCS1)C42 (centres undefined)
inactive: MOLT-4 > 100 µM | SF-268 > 100 µM | RXF 393 > 100 µM | KM12 > 100 µM | UACC-257 > 100 µM | SK-MEL-2 > 100 µM | RPMI-8226 > 100 µM | A549 > 100 µM | UACC-62 > 100 µM | SK-MEL-28 > 100 µM | SNB-75 > 100 µM | M14 > 100 µM

FC(F)(F)c1ccc(/C=N/C23CC4CC(CC(C4)C2)C3)cc1
inactive: MOLT-4 > 100 µM | SF-268 > 100 µM | RXF 393 > 100 µM | KM12 > 100 µM | UACC-257 > 100 µM | OVCAR-5 > 100 µM | SK-MEL-2 > 100 µM | RPMI-8226 > 100 µM | A549 > 100 µM | EKVX > 100 µM | LOX IMVI > 100 µM | UACC-62 > 100 µM | SK-MEL-28 > 100 µM | SNB-75 > 100 µM | M14 > 100 µM | HT-29 > 100 µM

COc1ccc(C2Cc3cc(OC)c(OC)c(OC)c3C2=O)cc1 (centres undefined)
inactive: MOLT-4 > 100 µM | SF-268 > 100 µM | KM12 > 100 µM | UACC-257 > 100 µM | OVCAR-5 > 100 µM | SK-MEL-2 > 100 µM | RPMI-8226 > 100 µM | A549 > 100 µM | EKVX > 100 µM | LOX IMVI > 100 µM | UACC-62 > 100 µM | SK-MEL-28 > 100 µM | SNB-75 47.3 µM | M14 > 100 µM | HT-29 > 100 µM

N#CCCN(c1ccc(C=O)cc1)S(=O)(=O)c1ccccc1
inactive: MOLT-4 > 100 µM | SF-268 > 100 µM | KM12 > 100 µM | UACC-257 > 100 µM | OVCAR-5 > 100 µM | SK-MEL-2 > 100 µM | RPMI-8226 > 100 µM | A549 > 100 µM | EKVX > 100 µM | LOX IMVI > 100 µM | UACC-62 > 100 µM | SK-MEL-28 > 100 µM | SNB-75 61.9 µM | M14 > 100 µM | HT-29 > 100 µM
